Laboratory results: the METLIN SMRT retention time set (Domingo-Almenara et al. 2019)

Test: gradient 5% acetonitrile 3 min, to 50% in 2 min, to 85% in 15 min, held 3 min, 100 µL/min
Settings: column: Zorbax Extend-C18 2.1 x 50 mm; eluents: water / acetonitrile, 0.1% formic acid
Procedure, shortened: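 Pure standards were run in mixtures of ~100 molecules by HPLC coupled to a quadrupole time-of-flight mass spectrometer. The column was a Zorbax Extend-C18 (2.1 × 50 mm, 1.8 μm) at 100 μL/min, with water and acetonitrile each containing 0.1% formic acid, in positive and negative ionization mode. Dead and dwell volumes were 40 μL and 900 μL. Retention time was taken from computationally picked adduct peaks, each manually inspected, with data collected over 3 months.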

| Structure (SMILES) | RP-LC retention time [s] |
| --- | --- |
| Cc1cc2c(cc1S(=O)(=O)N1CCCC1C(=O)Nc1ccccc1F)OC(C)C(=O)N2 (centres undefined) | 809 |
| COc1ccc(NC(=O)NCCCn2c(C(F)(F)F)nc3cccnc32)c(OC)c1 | 708 |
| Cc1nc2cccnc2n1CCN1CCN(C(=O)Nc2cccc(Cl)c2)CC1 | 604 |
| COc1cccc(-n2cc(C(=O)O)c3ccccc3c2=O)c1 | 760 |
| O=C(NCCc1csc(C2CCCN(C(=O)C3CCC3)C2)n1)C1CCC1 (centres undefined) | 719 |
| COc1ccc(CNC(=O)C2CCN(c3cnc4nccnc4c3)CC2)cc1 | 664 |
| Cn1cc(CN2CCC(C(=O)NCCCN3CCCCC3)CC2)c2cc(Cl)ccc21 | 586 |
| CCN(CC)CCNC(=O)c1nn(-c2ccc(Cl)cc2)c2c1CCc1cc(OC)ccc1-2 | 774 |
| O=C(NCCc1ccccc1)N1CCC(c2noc(-c3ccccn3)n2)C1 (centres undefined) | 742 |
| Cc1ccc(NC(=O)c2c(C)sc3ncnc(N4CCCC(C)C4)c23)cc1F (centres undefined) | 1290 |
| COC(=O)c1ccc(-c2nc3cnccn3c2Nc2ccc(C)c(Cl)c2)cc1 | 1050 |
| CCc1c(C2CCN(C(=O)c3cccc(C#N)c3)CC2)noc1N | 690 |
| CC1(C)Cc2cccc(OCC(=O)NCC3CN(c4ccccc4)C(=O)O3)c2O1 (centres undefined) | 796 |
| COc1ccc(S(=O)(=O)Nc2cccc(-c3cn4ccccc4n3)c2)cc1 | 645 |
| Cc1cc(=O)n(CC(=O)Nc2cccc(C)c2C)c(N(C)Cc2ccccc2)n1 | 794 |
| CC(C)CCNC(=O)c1ccc2c(c1)nc1n2CCN(C2CCCCC2)C1=O | 815 |
| COCCOC1CN(C2CCN(Cc3cccc(C#N)c3)CC2)C12CCCCC2 (centres undefined) | 557 |
| Cn1cc(C(=O)N2CCOCC2)c2cccnc21 | 601 |
| O=C(Nc1ccc(C(F)(F)F)cc1)NC1CCN(c2ccc(F)cc2)C1=O (centres undefined) | 920 |
| Cc1ccc2c(c1)N(S(C)(=O)=O)CCC(C(=O)NCc1ccccc1)O2 (centres undefined) | 875 |
| CCOc1ccc(-c2nc(-c3cccc(-c4ccnn4CC)c3)no2)cc1 | 1300 |
| CN1c2ccc(F)cc2C(=O)NC12CCN(C(=O)Cc1ccccc1)CC2 | 764 |
| COc1cccc(Cn2cc(S(=O)(=O)N3CCCCCC3)ccc2=O)c1 | 895 |

| Structure (SMILES) | RP-LC retention time [s] |
| --- | --- |
| COC(=O)N1CCc2ccccc2C1C(=O)NCc1ccco1 (centres undefined) | 715 |
| Cn1cc(-c2cc3n(n2)CCCN3C(=O)CCC(=O)NCCC2=CCCCC2)c2ccccc21 | 920 |
| CN1CCCc2cc(C(CNC(=O)C(=O)NC3CCCCC3)N(C)C)ccc21 (centres undefined) | 598 |
| CCCCNC(=O)Cn1nc2c3cc(-c4ccc(F)cc4)nn3ccn2c1=O | 812 |
| COc1ccc(OC)c(NC(=O)c2cnc(-c3ccc(F)cc3)nc2-c2ccncc2)c1 | 915 |
| Cc1cc(-c2nc3ccccc3s2)ccc1N | 880 |
| CCCCn1nc2ccc(S(=O)(=O)N3CCOCC3)cn2c1=O | 739 |
| O=C(NC1CCCCCCC1)C1CC(=O)N(CCc2c[nH]c3ccc(Cl)cc23)C1 (centres undefined) | 732 |
| CCN1C(=O)NC(c2ccc(C)cc2C)C2=C1CN(CCC(=O)N1CCOCC1)C2=O (centres undefined) | 614 |
| CCCc1sc(NCc2cccc(OC)c2O)nc1-c1cc(C)ccc1C | 911 |
| O=C(Nc1ccc(F)cc1)C1CCCN(S(=O)(=O)c2c[nH]c(C(=O)N3CCCC3)c2)C1 (centres undefined) | 787 |
| Cn1c(=O)c(N2CCC(NC(=O)Nc3ccc(F)c(Cl)c3)CC2)nc2ccccc21 | 971 |
| CC(C)c1nnc2n1CCN(C(=O)c1ccsc1)C2 | 596 |
| COc1ccccc1N1CCN(c2nc3ccccc3cc2-c2noc(C)n2)CC1 | 671 |
| COCCC1CCN(C(=O)CN(C)C(=O)c2cnccn2)CC1 | 580 |
| Cc1noc(-c2cc(=O)n(CC(=O)NCc3ccc4c(c3)OCO4)c3ccccc23)n1 | 802 |
| O=C(Cn1cccc1-c1nc(-c2ccc3c(c2)OCO3)no1)Nc1cc(F)ccc1F | 1000 |
| Cc1ccc(NC(=O)Cn2c(=O)n(-c3ccccc3)c(=O)c3c2cc(C)n3C)cc1Cl | 927 |
| Cc1onc(-c2ccc(F)cc2F)c1C(=O)NC(C)C | 789 |
| O=C(Nc1ccc(F)c(Cl)c1)N1CCC(N2CCN(Cc3ccccc3)C2=O)CC1 | 899 |
| COc1cccc(CCC(=O)N(C)C[C@@]23CCC[C@H]2N(C)C(=O)CC3)c1 | 571 |
| CCCN(CC1CCOC1)C(=O)c1cccc(Br)c1 (centres undefined) | 852 |
| CCCCn1c(CN2CCOCC2)nc2cc(NC(=O)c3cccs3)ccc21 | 678 |

| Structure (SMILES) | RP-LC retention time [s] |
| --- | --- |
| CCCCNC(=O)Cn1c(=O)c2cnc(-c3ccc(Cl)cc3)nc2n(CC)c1=O | 1050 |
| Cc1oc(C2CCC2)nc1C(=O)N1CCN(Cc2ccc3c(c2)OCO3)CC1 | 583 |
| COCCOC1CCC12CCN(C(=O)c1cn[nH]c1)CC2 (centres undefined) | 617 |
| COc1ccc(OC)c(CCNC(=O)c2c(N3CCCC3=O)c3cc(OC)ccc3n2C)c1 | 867 |
| O=C(NCc1ccco1)Nc1ccc2c(c1)N(C(=O)c1ccccc1)CC2 | 756 |
| COc1ccc(-c2cn3c(CC(=O)NCc4ccc(N(C)C)cc4)csc3n2)cc1OC | 588 |
| O=C(Nc1nc(-c2ccccc2)c(-c2ccccc2)s1)C1=COCCO1 | 1060 |
| CSc1ccc(-c2nc3ccc(Cl)cn3c2Nc2ccccc2C)cc1 | 954 |
| CCS(=O)(=O)N1C[C@@H](COc2cccnc2)[C@H](c2ccccn2)C1 | 561 |
| O=C1CCCc2cc(S(=O)(=O)N3CCC(C(=O)NCc4ccco4)CC3)ccc2N1 | 678 |
| CCn1ccc2c(cc(C(=O)Nc3ccc(Br)cc3)n2C)c1=O | 844 |
| Cc1cccc(-c2noc(Cn3c(=O)n(-c4ccccc4C)c(=O)c4sccc43)n2)c1 | 1070 |
| CC(=O)Nc1c(C)nn(-c2ccccc2)c1N1CCC(C(=O)N2CCN(c3ccccn3)CC2)CC1 | 569 |
| Cc1cc2nn(CC(=O)NCc3ccccc3)c(=O)n2c(-c2ccccc2)n1 | 753 |
| CS(=O)(=O)c1ccc(Sc2nc3ccccc3s2)c([N+](=O)[O-])c1 | 900 |
| Cc1ccc(-c2ccc(N3CCCC(C(=O)NCc4ccc5c(c4)OCO5)C3)nn2)cc1C (centres undefined) | 763 |
| O=C(c1nc(-c2ccc(Cl)cc2)n2c1CCCCC2)N1CCN(c2ncccn2)CC1 | 767 |
| O=C(NC1CCCC1)c1ccc2ccnc(N3CCN(c4ccc(Cl)cc4)CC3)c2c1 | 890 |
| COCCn1cc(CCNC(=O)Nc2ccc(C)c(F)c2)c2cccnc21 | 772 |
| CNC(=O)[C@@H]1CN(C(=O)c2ccsc2)C[C@H]1c1nc(C)no1 | 615 |
| CCc1nnc2nc(N3CCN(C(=O)COc4ccc(OC)cc4)CC3)cc(C)n12 | 613 |
| O=C(NC(c1ccccc1)c1nnc(-c2ccccc2Cl)o1)c1ccco1 (centres undefined) | 908 |
| Cc1cc(F)ccc1N1C(=O)CN(S(C)(=O)=O)CC1(C)C(=O)NCc1ccc(Cl)cc1 (centres undefined) | 856 |

| Structure (SMILES) | RP-LC retention time [s] |
| --- | --- |
| CCOC(=O)C1CCN([C@H]2CS(=O)(=O)C[C@@H]2S(=O)(=O)c2ccc(F)cc2)CC1 | 889 |
| CCN1CCn2cc(S(=O)(=O)Nc3cc(F)ccc3F)cc2C1=O | 715 |
| Cc1noc([C@@H]2CN(S(=O)(=O)c3ccc(Cl)s3)C[C@H]2C(N)=O)n1 | 732 |
| COc1ccc(-n2c(=O)n(C)c(=O)c3cc(C(=O)NCc4ccco4)cnc32)cc1 | 764 |
| Cc1cc(=O)n(CC(=O)Nc2cc(F)ccc2C)c(N)n1 | 608 |
| O=C(Cc1cccs1)Nc1ccc2c(c1)CCC(=O)N2 | 620 |
| COC(=O)c1ccc2c(=O)n(CCc3ccccc3)c(N3CCCCCC3)nc2c1 | 1300 |
| O=C(Nc1ccc2sccc2c1)c1coc2ccccc2c1=O | 1070 |
| CC(=O)N1CCc2cc(CNS(=O)(=O)c3ccc(Cl)cc3)ccc21 | 811 |
| COC(=O)c1cnc2nc(C)ccc2c1Nc1ccc(C)cc1Cl | 752 |
| CCN1C(=O)c2cccnc2Sc2cc(C(=O)NCc3ccccc3)ccc21 | 780 |
| COc1ccc(-c2ccc3c(N4CCOC[C@@H]4C)nc(N4CCOC[C@@H]4C)nc3n2)cc1CO | 698 |
| CC1CCN(CCCNC(=O)C2CCc3sc(C(=O)N4CCOCC4)cc3C2)CC1 (centres undefined) | 596 |
| Cc1nnc(C2CCCCCN2S(=O)(=O)c2cccnc2)o1 (centres undefined) | 691 |
| Cc1cc2[nH]c(C(=O)Nc3ccccc3F)c(CN3CCOCC3)c2s1 | 686 |
| COc1cc2c(cc1OC)[C@@H](C(=O)Nc1ccc(F)cc1)[C@@H]1CCCCN1C2=O | 773 |
| COc1ccc(Cn2c(C(C)C)nc3sc4ccccc4c(=O)c3c2=O)cc1 | 975 |
| CCn1ccc2ccc(CCC(=O)N3CCN(c4ccccc4)CC3)cc21 | 1030 |
| O=C(NCCc1ccccc1)N1CCCn2nc(-c3cccs3)cc2C1 | 805 |
| Cc1cccc2nc(-c3ccc(N(C)C)cc3)c(Nc3ccc4c(c3)OCO4)n12 | 747 |
